In patent EP4803142A2 (Kayothera Inc., priority 2021, dated 2022):

These compounds were tested against T1, hALDH1a2 (Homo sapiens, UniProt O94788) (assay: biochemical). Conditions: read-out: hAldhla2 IC50.
T1 construct: pET-Aldh1a2 transformed BL21-DE3 cultures; cell extracts
T1 sequence (O94788 1-518): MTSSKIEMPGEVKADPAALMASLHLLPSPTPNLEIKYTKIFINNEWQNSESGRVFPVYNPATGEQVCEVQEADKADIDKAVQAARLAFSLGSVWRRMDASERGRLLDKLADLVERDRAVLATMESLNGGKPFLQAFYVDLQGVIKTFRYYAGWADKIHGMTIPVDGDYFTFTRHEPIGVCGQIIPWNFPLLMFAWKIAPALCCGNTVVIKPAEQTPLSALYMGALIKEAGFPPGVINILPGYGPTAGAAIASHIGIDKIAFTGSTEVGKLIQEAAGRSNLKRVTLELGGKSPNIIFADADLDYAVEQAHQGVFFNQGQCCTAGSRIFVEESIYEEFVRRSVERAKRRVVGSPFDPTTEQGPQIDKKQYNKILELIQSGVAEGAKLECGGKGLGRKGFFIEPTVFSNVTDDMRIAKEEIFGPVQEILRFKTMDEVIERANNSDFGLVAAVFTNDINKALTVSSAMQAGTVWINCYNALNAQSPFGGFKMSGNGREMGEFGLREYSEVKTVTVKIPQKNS
Description: (§1) Biological Example 5C. Aldh1a2 Enzyme Inhibition Assay
(§2) Cell extracts were spun at 16000 x g for 5 minutes.
(§3) Recombinant enzyme and inhibitor added immediately before assay. Reaction rate measured by resorufin fluorescence. […]
(§4) Table 3B. IC50 values (nM) for inhibition of hALDH1a2 and mALDH1a2 of selected compounds

Compound	IC50 [µM]
CCc1cnccc1C(=O)Nc1ccc2c(c1)CN(C)C(=O)N2 [compound 20]	> 10
CC(C)=Cc1cnc(C)cc1C(=O)Nc1ccc2c(c1)CC(C)(C)C(=O)N2 [compound 69]	> 10
CN(C)Cc1cnccc1C(=O)Nc1ccc2c(c1)CCC(=O)N2 [compound 58]	> 10
O=C1CCc2cc(NC(=O)c3ccncc3)c(F)cc2N1 [compound 2]	> 10
N#Cc1cccc2nc(Nc3ccc4c(c3)CCC(=O)N4)ccc12 [compound 86]	10
CC1(C)Cc2cc(Nc3c[nH]c4ccccc4c3=O)ccc2NC1=O [compound 115]	> 10
CC1(C)Cc2cc(Nc3ccc4c(c3)NC(=O)CC4)ccc2NC1=O [compound 114]	> 10
Cc1cnccc1C(=O)Nc1cc2c(cc1F)NC(=O)CC2 [compound 15]	10
Cc1ccc(Nc2ccc3c(c2)CC(C)(C)C(=O)N3)nc1C [compound 96]	> 10
CC1(C)Cc2cc(Nc3c[nH]c4c(c3=O)CCCC4)ccc2NC1=O [compound 135]	> 10
Cc1cnccc1C(=O)Nc1ccc2c(c1)CCC(=O)N2 [compound 21]	30
N#Cc1ccc2nc(Nc3ccc4c(c3)CCC(=O)N4)ccc2c1 [compound 88]	> 10
CCc1c[n+]([O-])ccc1C(=O)Nc1ccc2c(c1)CCC(=O)N2 [compound 73]	> 10
CCc1cnc(C)cc1C(=O)Nc1ccc2c(c1)CCC(=O)N2 [compound 56]	10

The remaining compounds from weak to strong by IC50, led by results:

IC50 [µM]	Compound
10	N#Cc1ccc2ccc(Nc3ccc4c(c3)CCC(=O)N4)nc2c1 [compound 90]
10	Cc1ccc2nc(Nc3ccc4c(c3)CCC(=O)N4)ccc2c1 [compound 89]
4	CCc1cnccc1CNc1cc2c(cc1F)NC(=O)CC2 [compound 3]
2.13	CCc1cnccc1C(=O)Nc1ccc2c(c1)CC(C)(C)C(=O)N2 [compound 18]
1.89	Cc1cccc2ncc(Nc3ccc4c(c3)CCC(=O)N4)cc12 [compound 101]
1.06	O=C1CCc2cc(NC(=O)c3ccncc3C(F)(F)F)ccc2N1 [compound 54]
1.04	CCc1cnccc1C(=O)Nc1cc2c(cc1F)NC(=O)CC2(C)C [compound 40]
0.998	Cc1ccc2ccc(Nc3ccc4c(c3)CCC(=O)N4)nc2c1 [compound 91]
0.538	CCc1cnccc1C(=O)Nc1ccc2c(c1)CC(C)C(=O)N2 (stereo not shown) [compound 63]
0.466	CC1(C)Cc2cc(Nc3ccc(Cl)c(Cl)n3)ccc2NC1=O [compound 97]
0.384	CCc1cnc(Cl)cc1C(=O)Nc1cc2c(cc1F)NC(=O)CC2 [compound 80]
0.346	CC1(C)Cc2cc(Nc3ccc4c(Cl)cccc4n3)ccc2NC1=O [compound 112]
0.316	CC1(C)Cc2cc(Nc3nc4ccccc4o3)ccc2NC1=O [compound 99]
0.305	CC1(C)Cc2cc(Nc3nc(=O)c4ccccc4[nH]3)ccc2NC1=O [compound 116]
0.248	CC1(C)Cc2cc(Nc3ccc4ccccc4n3)ccc2NC1=O [compound 46]
0.125	Cc1cc2ccccc2nc1Nc1ccc2c(c1)CC(C)(C)C(=O)N2 [compound 134]
0.071	Cc1nc(Nc2ccc3c(c2)CC(C)(C)C(=O)N3)nc2ccccc12 [compound 132]
0.042	CC1(C)Cc2cc(Nc3cnc4ccccc4n3)c(F)cc2NC1=O [compound 109]

The compounds below were run against T2, mALDH1a2 (Mus musculus, UniProt Q62148) (assay: biochemical). Conditions: read-out: mAldhla2 IC50.
T2 construct: pET-Aldh1a2 transformed BL21-DE3 cultures; cell extracts
T2 sequence (Q62148 1-518): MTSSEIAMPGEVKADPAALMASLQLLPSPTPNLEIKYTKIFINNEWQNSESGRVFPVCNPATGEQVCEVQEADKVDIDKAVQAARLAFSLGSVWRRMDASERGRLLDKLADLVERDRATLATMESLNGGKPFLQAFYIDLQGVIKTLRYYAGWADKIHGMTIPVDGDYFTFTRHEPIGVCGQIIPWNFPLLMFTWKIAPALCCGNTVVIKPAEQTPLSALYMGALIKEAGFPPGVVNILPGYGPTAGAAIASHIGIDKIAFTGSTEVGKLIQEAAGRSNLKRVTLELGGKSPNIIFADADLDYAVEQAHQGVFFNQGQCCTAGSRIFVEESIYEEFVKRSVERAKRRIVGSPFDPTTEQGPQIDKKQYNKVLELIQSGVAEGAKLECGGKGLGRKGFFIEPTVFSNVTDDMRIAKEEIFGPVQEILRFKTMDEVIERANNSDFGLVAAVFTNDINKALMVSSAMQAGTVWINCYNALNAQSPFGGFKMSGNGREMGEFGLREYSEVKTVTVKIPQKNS
Description: as §1, §2, §3, §4

Compound	IC50 [µM]
CCc1cnccc1C(=O)Nc1ccc2c(c1)CN(C)C(=O)N2 [compound 20]	> 100
CC(C)=Cc1cnc(C)cc1C(=O)Nc1ccc2c(c1)CC(C)(C)C(=O)N2 [compound 69]	> 10
CN(C)Cc1cnccc1C(=O)Nc1ccc2c(c1)CCC(=O)N2 [compound 58]	> 10
O=C1CCc2cc(NC(=O)c3ccncc3)c(F)cc2N1 [compound 2]	10
N#Cc1cccc2nc(Nc3ccc4c(c3)CCC(=O)N4)ccc12 [compound 86]	0.084
CC1(C)Cc2cc(Nc3c[nH]c4ccccc4c3=O)ccc2NC1=O [compound 115]	> 10
CC1(C)Cc2cc(Nc3ccc4c(c3)NC(=O)CC4)ccc2NC1=O [compound 114]	> 10
Cc1cnccc1C(=O)Nc1cc2c(cc1F)NC(=O)CC2 [compound 15]	10
Cc1ccc(Nc2ccc3c(c2)CC(C)(C)C(=O)N3)nc1C [compound 96]	> 10
CC1(C)Cc2cc(Nc3c[nH]c4c(c3=O)CCCC4)ccc2NC1=O [compound 135]	> 10
Cc1cnccc1C(=O)Nc1ccc2c(c1)CCC(=O)N2 [compound 21]	32
N#Cc1ccc2nc(Nc3ccc4c(c3)CCC(=O)N4)ccc2c1 [compound 88]	> 10
CCc1c[n+]([O-])ccc1C(=O)Nc1ccc2c(c1)CCC(=O)N2 [compound 73]	> 10
CCc1cnc(C)cc1C(=O)Nc1ccc2c(c1)CCC(=O)N2 [compound 56]	1.26

Second part, the compound after the results:

IC50 [µM]	Compound
6.38	N#Cc1ccc2ccc(Nc3ccc4c(c3)CCC(=O)N4)nc2c1 [compound 90]
0.489	Cc1ccc2nc(Nc3ccc4c(c3)CCC(=O)N4)ccc2c1 [compound 89]
3.33	CCc1cnccc1CNc1cc2c(cc1F)NC(=O)CC2 [compound 3]
1.74	CCc1cnccc1C(=O)Nc1ccc2c(c1)CC(C)(C)C(=O)N2 [compound 18]
0.935	Cc1cccc2ncc(Nc3ccc4c(c3)CCC(=O)N4)cc12 [compound 101]
0.224	O=C1CCc2cc(NC(=O)c3ccncc3C(F)(F)F)ccc2N1 [compound 54]
3.33	CCc1cnccc1C(=O)Nc1cc2c(cc1F)NC(=O)CC2(C)C [compound 40]
0.594	Cc1ccc2ccc(Nc3ccc4c(c3)CCC(=O)N4)nc2c1 [compound 91]
0.297	CCc1cnccc1C(=O)Nc1ccc2c(c1)CC(C)C(=O)N2 (stereo not shown) [compound 63]
0.294	CC1(C)Cc2cc(Nc3ccc(Cl)c(Cl)n3)ccc2NC1=O [compound 97]
0.324	CCc1cnc(Cl)cc1C(=O)Nc1cc2c(cc1F)NC(=O)CC2 [compound 80]
0.3	CC1(C)Cc2cc(Nc3ccc4c(Cl)cccc4n3)ccc2NC1=O [compound 112]
0.184	CC1(C)Cc2cc(Nc3nc4ccccc4o3)ccc2NC1=O [compound 99]
0.337	CC1(C)Cc2cc(Nc3nc(=O)c4ccccc4[nH]3)ccc2NC1=O [compound 116]
0.162	CC1(C)Cc2cc(Nc3ccc4ccccc4n3)ccc2NC1=O [compound 46]
0.097	Cc1cc2ccccc2nc1Nc1ccc2c(c1)CC(C)(C)C(=O)N2 [compound 134]
0.053	Cc1nc(Nc2ccc3c(c2)CC(C)(C)C(=O)N3)nc2ccccc12 [compound 132]
0.045	CC1(C)Cc2cc(Nc3cnc4ccccc4n3)c(F)cc2NC1=O [compound 109]
